Data from the supplement of paper PMC10307832.

Assays:
Assay in all cases: relative viability (nuclei count vs DMSO), 5 days (fraction); higher = more cells survive
Zebularine + Luminespib = compound: O=c1ncccn1[C@@H]1O[C@H](CO)[C@@H](O)[C@H]1O [Zebularine] + CCNC(=O)c1noc(-c2cc(C(C)C)c(O)cc2O)c1-c1ccc(CN2CCOCC2)cc1 [Luminespib] (partner 0.01 µM)
Procedure, shortened: (§1)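 Lung cancer cell lines, seeded in 1536-well plates, were treated the following day by pin tool with a single drug or with five library-drug doses (not always all listed) in √10 steps on top of a fixed anchor-drug dose. Cells were fixed and nuclei stained in one step after 5 days, and nuclei were counted. Relative viability is the nuclei count for treated wells divided by that for vehicle wells, reported as medians of duplicate plates.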

Zebularine + Lapatinib = compound: O=c1ncccn1[C@@H]1O[C@H](CO)[C@@H](O)[C@H]1O [Zebularine] + CS(=O)(=O)CCNCc1ccc(-c2ccc3ncnc(Nc4ccc(OCc5cccc(F)c5)c(Cl)c4)c3c2)o1 [Lapatinib] (partner 2 µM)
Procedure, shortened: as §1

Zebularine + AZD7762 = compound: O=c1ncccn1[C@@H]1O[C@H](CO)[C@@H](O)[C@H]1O [Zebularine] + NC(=O)Nc1cc(-c2cccc(F)c2)sc1C(=O)N[C@H]1CCCNC1 [AZD7762] (partner 0.2 µM)
Procedure, shortened: as §1

BI-D1870 + OSI-027 = compound: CC(C)CCN1c2nc(Nc3cc(F)c(O)c(F)c3)ncc2N(C)C(=O)C1C [BI-D1870] + COc1cccc2cc(-c3nc([C@H]4CC[C@H](C(=O)O)CC4)n4ncnc(N)c34)[nH]c12 [OSI-027] (partner 0.5 µM)
Procedure, shortened: as §1

Cell Line | relative viability (Zebularine + Luminespib; first compound 1 µM) | relative viability (Zebularine + Luminespib; first compound 3.162 µM) | relative viability (Zebularine + Luminespib; first compound 10 µM) | relative viability (Zebularine + Luminespib; first compound 31.62 µM) | relative viability (Zebularine + Luminespib; first compound 100 µM) | relative viability (Zebularine + Lapatinib; first compound 1 µM) | relative viability (Zebularine + Lapatinib; first compound 3.162 µM) | relative viability (Zebularine + Lapatinib; first compound 10 µM) | relative viability (Zebularine + Lapatinib; first compound 31.62 µM) | relative viability (Zebularine + Lapatinib; first compound 100 µM) | relative viability (Zebularine + AZD7762; first compound 1 µM) | relative viability (Zebularine + AZD7762; first compound 3.162 µM) | relative viability (Zebularine + AZD7762; first compound 10 µM) | relative viability (Zebularine + AZD7762; first compound 31.62 µM) | relative viability (Zebularine + AZD7762; first compound 100 µM) | relative viability (BI-D1870 + OSI-027; first compound 0.04 µM) | relative viability (BI-D1870 + OSI-027; first compound 0.1265 µM) | relative viability (BI-D1870 + OSI-027; first compound 0.4 µM) | relative viability (BI-D1870 + OSI-027; first compound 1.265 µM) | relative viability (BI-D1870 + OSI-027; first compound 4 µM)
HCC-827 | 0.756 | 0.909 | 0.353 | 0.582 | 0.257 | 0.209 | 0.175 | 0.192 | 0.188 | 0.191 | 0.221 | 0.206 | 0.197 | 0.197 | 0.179 | 0.74 | 0.738 | 0.71 | 0.76 | 0.711
HOP-62 | 0.991 | 0.906 | 0.263 | 0.296 | 0.178 | 1.07 | 0.783 | 0.467 | 0.368 | 0.144 | 0.649 | 0.658 | 0.303 | 0.307 | 0.247 | 0.993 | 0.819 | 0.791 | 0.849 | 0.699
IA-LM |  |  |  |  |  | 0.908 | 1.07 |  | 0.773 | 0.599 |  |  |  |  |  |  |  |  |  | 
LCLC-103H | 1.07 | 0.996 | 0.696 | 0.705 | 0.475 |  |  |  |  |  | 0.8 | 0.798 | 0.579 | 0.802 | 0.689 | 0.387 | 0.417 | 0.447 | 0.418 | 0.366
NCI-H441 | 0.301 | 0.266 | 0.298 | 0.244 | 0.225 |  |  |  |  |  | 1.37 | 1.27 | 0.536 | 0.418 | 0.369 | 0.577 | 0.557 | 0.601 | 0.637 | 0.496
NCI-H520 | 0.262 | 0.261 | 0.186 | 0.246 | 0.192 | 1.14 | 0.863 | 0.477 | 0.277 | 0.256 |  |  |  |  |  | 0.226 | 0.205 | 0.252 | 0.291 | 0.2
NCI-H522 | 0.928 | 0.881 | 0.99 | 0.776 | 0.665 |  |  |  |  |  | 0.76 | 0.821 | 0.767 | 0.858 | 0.841 | 0.872 | 0.66 | 0.655 | 0.654 | 0.649
NCI-H661 | 1.02 | 0.948 | 0.686 | 1.01 | 0.895 | 0.443 | 0.463 | 0.461 | 0.436 | 0.583 |  |  |  |  |  | 0.765 | 0.622 | 0.652 | 0.706 | 0.467
NCI-H1299 |  |  |  |  |  | 0.965 | 0.937 | 0.619 | 0.968 | 0.493 |  |  |  |  |  |  |  |  |  | 
NCI-H1563 | 0.519 | 0.517 | 0.518 | 0.521 | 0.514 | 1 | 0.782 | 0.907 | 1.13 | 0.946 |  |  |  |  |  | 0.79 | 0.814 | 0.673 | 0.801 | 0.709
NCI-H1648 |  |  |  |  |  |  |  |  |  |  | 0.587 | 0.71 | 0.543 | 0.615 | 0.6 | 0.266 | 0.255 | 0.273 | 0.252 | 0.277
NCI-H1650 | 0.188 | 0.222 | 0.176 | 0.234 | 0.225 | 0.878 | 0.618 |  | 1.08 | 0.86 |  |  |  |  |  | 0.653 | 0.591 | 0.593 | 0.68 | 0.331
NCI-H1703 |  |  |  |  |  | 0.994 | 0.979 |  | 1.52 | 0.952 | 0.144 | 0.173 | 0.118 | 0.142 | 0.103 |  |  |  |  | 
NCI-H2009 | 1.09 | 1.04 | 0.793 | 0.859 | 0.3 | 0.941 | 0.755 | 0.753 | 0.757 | 0.359 |  |  |  |  |  | 0.742 | 0.571 | 0.615 | 0.559 | 0.255
NCI-H2023 | 0.942 | 1.04 | 0.301 | 0.448 | 0.174 | 1.03 | 0.686 | 0.786 | 0.717 | 0.292 |  |  |  |  |  | 0.456 | 0.298 | 0.323 | 0.319 | 0.223
NCI-H2228 | 0.198 | 0.147 | 0.175 | 0.226 | 0.153 | 1.19 | 1.04 | 0.66 | 0.638 | 0.281 |  |  |  |  |  | 0.659 | 0.533 | 0.654 | 0.515 | 0.257
NCI-H2342 | 0.835 | 0.783 | 0.621 | 0.669 | 0.576 |  |  |  |  |  | 0.512 | 0.415 | 0.399 | 0.505 | 0.429 | 0.592 | 0.587 | 0.645 | 0.773 | 0.679
SK-LU-1 | 0.231 | 0.187 | 0.22 | 0.229 | 0.183 | 0.896 | 0.9 | 0.545 | 0.676 | 0.448 |  |  |  |  |  | 0.386 | 0.305 | 0.26 | 0.299 | 0.199
SK-MES-1 | 0.656 | 0.755 | 0.458 | 0.347 | 0.251 | 0.484 | 0.435 | 0.397 | 0.427 | 0.269 |  |  |  |  |  | 0.699 | 0.559 | 0.567 | 0.55 | 0.336
SW 900 | 0.187 | 0.21 | 0.218 | 0.162 | 0.137 |  |  |  |  |  | 0.65 | 0.57 |  | 0.818 | 0.832 | 0.808 | 0.424 | 0.442 | 0.604 | 0.327
SW 1573 | 0.181 | 0.34 | 0.173 | 0.41 | 0.285 | 1.24 | 0.773 | 0.502 | 1.23 | 0.873 |  |  |  |  |  | 0.598 | 0.436 | 0.513 | 0.477 | 0.329
UMC-11 | 1.06 | 0.996 | 0.686 | 0.62 | 0.316 | 1.28 | 0.977 | 0.614 | 0.849 | 0.436 |  |  |  |  |  | 0.519 | 0.48 | 0.479 | 0.406 | 0.16
